Test results published in patent publication US20030181401A1, “Insulin secretion promoter” (KYOWA HAKKO KOGYO CO., LTD., priority 2002, published 2003).
Values joined by “and” are separate entries in the source; they are usually repeats but may differ in a detail not shown here. Equal values may be shown once.

Columns and labels:
Format in all cases: in vivo
ICR mice [1] = assay: Test Example 6: serum insulin after intravenous saccharide with simultaneous oral glucose loading
Method: Groups of male 9-week-old ICR mice (Japan SLC, Inc.) each consisting of 7 mice were fed CE-2 (Clea Japan, Inc.) for one week, so as to accustom the animals to the environment. Then, the mice were fasted for 18 hours.
An aqueous 10% solution of 2′-FL or NeuAc was intravenously administered to the mice to 500 mg (saccharide)/kg body weight, while an aqueous 40% glucose solution was orally administered simultaneously to 2 g (glucose)/kg body weight, to the mice. To the control group, physiological saline was administered intravenously, while glucose was orally administered simultaneously to 2 g/kg body weight. Zero minute and 30 minutes after glucose loading, blood was taken from a tail vein. […] Blood was centrifuged (4° C., 10000 rpm, 10 minutes), to obtain serum.
Insulin in the serum recovered was assayed by enzyme immunoassay using Lebis Insulin kit (for mice-T) (Shibayagi, Co., Ltd.) in the same manner as in the Test Example 2.

ICR mice [2] = assay: Test Example 2: serum insulin in glucose tolerance test after 7-day oral dosing, normal mice
Method: Eleven male 9-week-old ICR mice as normal mice (SLC, Inc.) were fed a commercially available CE-2 (Clea Japan, Inc.) for one week, so as to accustom the mice to the environment.
After acclimation, an aqueous 10% solution of 2′-fucosyllactose was orally administered to the mice at 200 mg (2′-FL)/kg body weight in the morning and at 300 mg (2′-FL)/kg body weight in the evening. The same volume of saline was administered to the control group. The aqueous 2′-FL solution and saline were both dosed daily to the mice for 7 days.
During the dosing period, CE-2 was given together with drinking water ad libitum. […]
After the reaction, the plate was rinsed four times with the rinse solution. […] The absorbance of the reaction solution in the wells at 450 nm was read with a plate reader. Herein, a standard curve was prepared by using the standard insulin solution (mice, 200 ng/ml) attached to the kit as a standard solution to dilute the standard solution appropriately with the buffer solution attached to the kit for the same reaction as for the serum, and plotting the relation between the concentration and the absorbance (450 nm). Based on the prepared standard curve and the absorbance from the reaction with the serum, the insulin concentration in the serum was determined.

[3] = test system: STZ-induced diabetic rats (Wistar); assay: Test Example 9: serum insulin in glucose tolerance test, Type I diabetes mellitus model
Method: Male 7-week-old Wistar rats (Japan SLC, Inc.) were fed CE-2 (Clea Japan, Inc.) for one week, so as to accustom the rats to the environment.
After 18-hour starvation of the accustomed rats, […] of 50 mM citrate buffer, pH 4.5containing 15 mg of streptozotocin (WAKO Pure Chemical Industries, Inc.; abbreviated as “STZ” hereinafter) was prepared and administered to 25 mg (STZ)/kg body weight from their tail vein. Five days after the STZ administration, the rats were fasted for 18 hours. Blood was taken from puncture in the tail vein to assay blood glucose with a simple-type blood glucose assay apparatus Medisafe Reader GR-101 (Terumo, Co., Ltd.), to select 5 rats (Nos. 1, 3, 4, 5, 8) at mild state of diabetes mellitus with a blood glucose level of 200 mg/dl or less.
An aqueous 2% solution of 2′-fucosyllactose was prepared and administered to the rat No. 1 from the tail vein to 50 mg/kg body weight on a 2′-FL dose basis. 0.9% physiological saline was administered to rats Nos. 3, 4, 5 and 8. […] Zero minute and 30, 60, 120, and 240 minutes after glucose loading, blood was taken from a tail vein, to assay blood glucose with Medisafe Reader GR-101 and collect the serum.
12 days after the STZ dosing, the rats were fasted for 18 hours. […] Zero minute and 30, 60, 120, and 240 minutes after glucose loading, blood was taken from a tail vein, to assay blood glucose with Medisafe Reader GR-101 and collect the serum.
Insulin in the serum was assayed by enzyme immunoassay using Morinaga ultra-sensitive rat insulin assay kit (Morinaga Biochemical Research Institute, Co., Ltd.) in the same manner as in Test Example 8. Additionally, a standard curve was prepared by diluting […] of the standard insulin (rat) attached to the kit with 100 μl of saline to use the resulting 25.6 ng/ml insulin solution as the standard solution, diluting the standard solution appropriately with the diluent attached to the kit for the same reaction as for the serum, and plotting the relation between the concentration and the absorbance at the principal wave length of 450 nm and at the sub wave length of 655 nm. […]

2′-fucosyllactose [2′-FL]
Serum insulin concentration after glucose loading, 30 minutes (ICR mice [1]; ICR mice fasted 18 hours, 500 mg/kg intravenous with simultaneous glucose 2 g/kg oral, 30 minutes, mean ± SD): 192.3 ± 57.4 pg/mL | Serum insulin concentration after glucose loading, 120 minutes (ICR mice [1]; ICR mice fasted 18 hours, 500 mg/kg intravenous with simultaneous glucose 2 g/kg oral, 120 minutes, mean ± SD): 2090.7 ± 533.1 pg/mL | serum insulin concentration after glucose loading compared with the control group (in words) (ICR mice [1]; ICR mice, intravenous dosing): increased | insulin concentration 120 minutes after glucose loading compared with the control group (in words) (ICR mice [2]; continuous daily oral dosing): increased | Serum insulin concentration after glucose loading, 120 minutes (ICR mice [2]; oral 200 + 300 mg/kg daily, 7 days, glucose 2 g/kg oral, 120 minutes, mean ± SD): 0.35 ± 0.24 ng/mL | serum insulin concentration via glucose loading (in words) ([3]; STZ-induced diabetic rats, glucose loading 2 hours after intravenous dosing): increased | Serum insulin concentration, 0 minute ([3]; individual STZ rats Nos. 1, 3, 4, 5, 8, 50 mg/kg intravenous two hours before glucose 1 g/kg oral, 0 minute after glucose loading, 50 mg/kg): 125.8 pg/mL and 697.0 pg/mL and 197.4 pg/mL and 180.4 pg/mL and 312.5 pg/mL | Serum insulin concentration, 30 minutes ([3]; individual STZ rats Nos. 1, 3, 4, 5, 8, 50 mg/kg intravenous two hours before glucose 1 g/kg oral, 30 minutes after glucose loading, 50 mg/kg): 331.1 pg/mL and 586.6 pg/mL and 915.1 pg/mL and 475.5 pg/mL and 148.4 pg/mL
